Source: BigSolDB 2.1

CC1=CC(=O)C(C(C)C)=CC1=O
solubility (mole fraction)
Conditions	in DMSO	in ethanol	in ethyl acetate	in isopropanol	in methanol	in n-butanol	in propylene glycol	in sec-butanol	in transcutol	in water
298.2 K	0.0278	0.0179	0.0312	0.0451	0.01	0.0594	0.00553	0.0614	0.0664	8.27e-05
303.2 K	0.0309	0.0206	0.0347	0.0514	0.0116	0.0658	0.0069	0.07	0.0755	9.39e-05
308.2 K	0.0358	0.0238	0.0387	0.0579	0.0137	0.0744	0.00891	0.0774	0.0838	0.000108
313.2 K	0.0402	0.0278	0.0431	0.0663	0.0157	0.082	0.0116	0.0865	0.0927	0.000131
318.2 K	0.045	0.0326	0.0485	0.0758	0.0182	0.0933	0.0146	0.0973	0.103	0.000152

Conditions	solubility (mole fraction)
in PEG-400, 298.2 K	0.0352
in PEG-400, 303.2 K	0.042
in PEG-400, 308.2 K	0.0508
in PEG-400, 313.2 K	0.0617
in PEG-400, 318.2 K	0.0744
